Patent publication US11865129B2, “Application of anemoside B4 in preparation of a drug for treatment or prevention of psoriasis” (GUANGXI XINHAI PHARMACEUTICAL TECHNOLOGY CO., LTD., priority 2021, dated 2024)

What was measured:
[1] = system: IL-1β; test: IL-1β level in skin tissue, psoriasis model mice; format: in vivo, BALB/c male mice; conditions: 12 days, compared with model control group
Protocol: (§1) A shaving area on the back of the mice in each group is 2.5 cm×3 cm, and the vellus is removed with mild depilatory cream. The mice of each group except the blank control group are modeled by administrating 62.5 mg 5% imiquimod cream on the shaving area until the skin is thickened and has erythema and silver scales for modeling completely. During the model establishment, 5% imiquimod cream is administrated once a day, and continuously administrated for 14 days. On the third day, the model establishment is continued and drugs are administered at the same time, wherein the mice in the AC intragastric administration group (8 mg/kg), the anemoside B4 intragastric (i.g.) administration group (5 mg/kg), the anemoside B4 intragastric administration group (10 mg/kg), and the anemoside B4 intragastric administration group (20 mg/kg) are administrated once a day, and continuously administrated for 12 days. […] The mice in the blank control group and the model control group are applied 62.5 mg Vaseline to the skin lesions once a day, and continuously applied for 12 days. The weight of the mice is recorded for counting the weight change of the mice. 100 mg skin tissue of the mice in each group of the first animal group are precisely weighed, added 0.9 mL ice normal saline, homogenized with the tissue grinder, and centrifuged at 4° C. and 3000 rpm for 10 min. The supernatant is collected, and IL-12, IL-17, IL-6 and IL-1β level in the skin tissue are measured by kits according to the procedures of specification.

[2] = Weights of mice, 5% imiquimod-induced psoriasis model (first animal group); format: in vivo, BALB/c male mice; conditions: for weights of the mice / weight loss of the mice caused by psoriasis: 12 days; for weights of the mice: compared with blank control group; for weight loss of the mice caused by psoriasis: compared with model control group
Protocol: as §1, with “mice.” for “mice. 100 mg skin tissue of the mice in each group of the first animal group are precisely weighed, added 0.9 mL ice normal saline, homogenized with the tissue grinder, and centrifuged at 4° C. and 3000 rpm for 10 min. The supernatant is collected, and IL-12, IL-17, IL-6 and IL-1β level in the skin tissue are measured by kits according to the procedures of specification.”

[3] = system: IL-6; test: IL-6 level in serum by ELISA, psoriasis model rats; format: in vivo, SD male rats; conditions: 7 days, vs model control group
Protocol: (§2) 60 SPF-grade SD male rats in the second animal group are divided into 6 groups: a blank control group, a model control group, an anemoside B4 intragastric administration group (5 mg/kg), an anemoside B4 intragastric administration group (10 mg/kg), an anemoside B4 intragastric administration group (20 mg/kg), and an acitretin intragastric administration group (5 mg/kg), and are respectively expressed into the blank control group, the model group, anemoside B4 5 mg/kg, anemoside B4 10 mg/kg, anemoside B4 20 mg/kg, and acitretin 5 mg/kg in FIGS. 3, 4 and 5 for convenience. A shaving area on the back of the rats in each group is 2.5 cm×3 cm, and the vellus is removed with mild depilatory cream. The rats of each group except the blank control group are modeled by administrating 62.5 mg 5% imiquimod cream on the shaving area until the skin is thickened and has erythema and silver scales for modeling completely.
(§3) 5% imiquimod cream is administrated once a day, and continuously administrated for 8 days for model establishment. On the second day, the rats in each group are continuously intragastric (i.g.) administered drugs for 7 days.
After administration, blood is taken from abdominal aorta of the rats in each group of the second animal group, centrifuged to collect the serum, and measured the M-CSF, VEGF, IL-6 and IL-17 level in the serum by ELISA kits according to the procedures of specification.

[4] = system: T lymphocyte subsets of CD4+, CD3+, CD4+/CD8+; test: T lymphocyte subsets by flow cytometry, psoriasis model rats; format: in vivo, SD male rats; conditions: 7 days, vs model control group
Protocol: as §2, §3
After administration, blood is taken from abdominal aorta of the rats in each group of the second animal group, added erythrocyte lysis buffer, centrifuged to collect T lymphocytes, incubated CD4, CD3 and CD8 antibodies in 4° C., washed with a buffer, centrifuged to collect cells, and is subjected to flow cytometry to measure the ratio of the T lymphocyte subsets.

[5] = system: 5% imiquimod-induced psoriatic lesions; test: Psoriatic lesions and PASI, 5% imiquimod-induced psoriasis model in rats (second animal group); format: in vivo, SD male rats; conditions: 7 days; for erythema and skin lesions of the rats: compared to model control group; for PASI: compared with model control group
Protocol: as §2, §3
The psoriasis area and severity index (PASI) of the mice in the first animal group and the rats in the second animal group is performed by taking photographs of the shaving area, giving 0-4 scores for the degree of erythema, scales and infiltration thickness in the skin lesions according to a PASI standard, and obtaining the total scores by summing the scores of the three parts; wherein the PASI standard is as follows: none 0, mild 1, moderate 2, severe 3, and extremely severe 4.

[6] = intragastric 5 mg/kg once a day
[7] = intragastric 10 mg/kg once a day
[8] = intragastric 20 mg/kg once a day

## C=C(C)[C@@H]1CC[C@]2(C(=O)O[C@@H]3O[C@H](CO[C@@H]4O[C@H](CO)[C@@H](O[C@@H]5O[C@@H](C)[C@H](O)[C@@H](O)[C@H]5O)[C@H](O)[C@H]4O)[C@@H](O)[C@H](O)[C@H]3O)CC[C@]3(C)[C@H](CC[C@@H]4[C@@]5(C)CC[C@H](O[C@@H]6OC[C@H](O)[C@H](O)[C@H]6O[C@@H]6O[C@@H](C)[C@H](O)[C@@H](O)[C@H]6O)[C@@](C)(CO)[C@@H]5CC[C@]43C)[C@H]12 [anemoside B4]
[1]; [6]
  level of IL-1β in the skin tissue: significantly reduced
[1]; [7]
  level of IL-1β in the skin tissue: significantly reduced
[1]; [8]
  level of IL-1β in the skin tissue: significantly reduced
[2]; anemoside B4 groups, doses not specified
  reversal of weight loss caused by imiquimod, compared with the acitretin capsules (AC) intragastric administration group: better
[2]; [6]
  weights of the mice: significantly decreased
  weight loss of the mice caused by psoriasis: can be improved
[2]; [7]
  weights of the mice: significantly decreased
  weight loss of the mice caused by psoriasis: can be improved
[2]; [8]
  weights of the mice: significantly decreased
  weight loss of the mice caused by psoriasis: can be improved
[3]; intragastric 5 mg/kg
  IL-6 level in serum: significantly decreased
[3]; intragastric 10 mg/kg
  IL-6 level in serum: significantly decreased
[3]; intragastric 20 mg/kg
  IL-6 level in serum: significantly decreased
[4]; intragastric 5 mg/kg
  ratio of CD3+ in serum: significantly increased
  ratio of CD4+ in serum: significantly increased
  ratio of CD4+/CD8+ in serum: significantly increased
[4]; intragastric 10 mg/kg
  ratio of CD3+ in serum: significantly increased
  ratio of CD4+ in serum: significantly increased
  ratio of CD4+/CD8+ in serum: significantly increased
[4]; intragastric 20 mg/kg
  ratio of CD3+ in serum: significantly increased
  ratio of CD4+ in serum: significantly increased
  ratio of CD4+/CD8+ in serum: significantly increased
[5]; intragastric 5 mg/kg
  erythema and skin lesions of the rats: lightened
[5]; intragastric 10 mg/kg
  erythema and skin lesions of the rats: lightened
  PASI: significantly decreased
[5]; intragastric 20 mg/kg
  erythema and skin lesions of the rats: lightened
  PASI: significantly decreased
